Source: patent publication US6878748B2, “Fluorinated cycloalkyl-derivatized benzoylguanidines, process for their preparation, their uses as medicament, and medicament containing them” (Aventis Pharma Deutschland GmbH, priority 2002, dated 2005)

Legend:
human NHE-1 = target: T1, human NHE-1 (Homo sapiens, UniProt P19634); assay: FLIPR assay for NHE-1 inhibition by measurement of the recovery in pHi in transfected cell lines; format: cell-based; conditions: transfected LAP-1 cell line expressing human NHE-1, BCECF fluorescence, read-out: NHE1 inhibition IC50
T1 construct: expressed in transfected cells; host or cells: LAP-1 cells (parental line has no endogenous NHE activity), G418 selection
T1 sequence (P19634 whole entry): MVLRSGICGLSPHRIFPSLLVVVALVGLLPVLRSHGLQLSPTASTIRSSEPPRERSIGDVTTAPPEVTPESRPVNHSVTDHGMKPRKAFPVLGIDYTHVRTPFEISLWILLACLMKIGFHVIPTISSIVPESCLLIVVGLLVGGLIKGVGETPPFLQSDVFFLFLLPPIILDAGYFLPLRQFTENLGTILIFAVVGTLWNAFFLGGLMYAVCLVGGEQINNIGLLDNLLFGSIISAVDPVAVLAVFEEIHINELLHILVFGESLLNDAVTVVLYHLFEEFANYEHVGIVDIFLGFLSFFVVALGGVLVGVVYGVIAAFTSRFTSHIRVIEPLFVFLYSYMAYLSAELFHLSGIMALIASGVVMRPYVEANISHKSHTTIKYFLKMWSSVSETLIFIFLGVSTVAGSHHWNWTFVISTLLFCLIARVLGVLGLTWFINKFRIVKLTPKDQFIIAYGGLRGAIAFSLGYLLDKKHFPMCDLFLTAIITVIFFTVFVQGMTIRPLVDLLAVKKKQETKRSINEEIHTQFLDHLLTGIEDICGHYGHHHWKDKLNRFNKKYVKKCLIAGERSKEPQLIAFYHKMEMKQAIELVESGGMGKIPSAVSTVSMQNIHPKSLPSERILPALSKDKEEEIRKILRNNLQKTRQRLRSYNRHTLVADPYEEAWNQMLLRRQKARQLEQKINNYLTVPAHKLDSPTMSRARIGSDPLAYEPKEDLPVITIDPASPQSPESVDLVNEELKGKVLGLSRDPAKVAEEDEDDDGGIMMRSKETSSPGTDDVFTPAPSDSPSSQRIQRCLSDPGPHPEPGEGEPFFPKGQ
Protocol: The NHE-1 inhibition was determined as follows:
FLIPR assay for determining NHE-1 inhibitors by measurement of the recovery in pHi in transfected cell lines which express human NHE-1
The assay is carried out in an FLIPR (fluorescent imaging plate reader) with black-walled 96-well microtiter plates with clear bases.
(The growth medium for the transfected cells (Iscove +10% fetal calf serum) additionally contains G418 as selection antibiotic in order to ensure the presence of the transfected sequences.)
The actual assay starts with the removal of the growth medium and addition of 100 μl of loading buffer per well (5 μM BCECF-AM [2′,7′-bis(carboxyethyl)-5-(and -6)-carboxyfluorescein, acetoxymethyl ester] in 20 mM NH4Cl, 115 mM choline chloride, 1 mM MgCl2, 1 mM CaCl2, 5 mM KCl, 20 mM HEPES, 5 mM glucose; pH 7.4 [adjusted with KOH]). The cells are then incubated at 37° C. for 20 minutes. This incubation leads to loading of the cells with the fluorescent dye whose fluorescence intensity depends on pHi, and with NH4Cl, which makes the cells slightly alkaline. [The nonfluorescent dye precursor BCECF-AM is, -as ester, membrane-permeable. The actual dye BCECF, which is not membrane-permeable, is liberated inside cells by esterases.] […]

[H]/N=C(\N)NC(=O)c1cc(S(C)(=O)=O)c(OC2CC(F)(F)C2)cc1C [Example 1, N-[4-(3,3-Difluorocyclobutoxy)-5-methanesulfonyl-2-methylbenzoyl]guanidine]
IC50 (human NHE-1): 5.9 nM
melting point: 273 °C (dec.)
